Results reported in patent publication EP0306300B1, “Pyrrolo(1,2-a)imidazole and imidazo(1,2-a)pyridine derivatives and their use as 5-lipoxygenase pathway inhibitors” (SMITHKLINE BEECHAM CORPORATION, priority 1987, dated 1989).
Like-named read-outs stand apart in the source and are kept apart here.

Key:
5-Lipoxygenase = biological target: T1, 5-Lipoxygenase (Rattus norvegicus, UniProt P12527); test: Assay of 5-lipoxygenase activity in RBL-1 high speed supernatant; format: biochemical; details: read-out: 5-LO IC50
T1 construct: the supernatant was centrifuged at 100,000 x g for 60 min; host or cells: RBL-1 cells (soluble cell extract, high-speed supernatant)
T1 sequence (P12527 1-673): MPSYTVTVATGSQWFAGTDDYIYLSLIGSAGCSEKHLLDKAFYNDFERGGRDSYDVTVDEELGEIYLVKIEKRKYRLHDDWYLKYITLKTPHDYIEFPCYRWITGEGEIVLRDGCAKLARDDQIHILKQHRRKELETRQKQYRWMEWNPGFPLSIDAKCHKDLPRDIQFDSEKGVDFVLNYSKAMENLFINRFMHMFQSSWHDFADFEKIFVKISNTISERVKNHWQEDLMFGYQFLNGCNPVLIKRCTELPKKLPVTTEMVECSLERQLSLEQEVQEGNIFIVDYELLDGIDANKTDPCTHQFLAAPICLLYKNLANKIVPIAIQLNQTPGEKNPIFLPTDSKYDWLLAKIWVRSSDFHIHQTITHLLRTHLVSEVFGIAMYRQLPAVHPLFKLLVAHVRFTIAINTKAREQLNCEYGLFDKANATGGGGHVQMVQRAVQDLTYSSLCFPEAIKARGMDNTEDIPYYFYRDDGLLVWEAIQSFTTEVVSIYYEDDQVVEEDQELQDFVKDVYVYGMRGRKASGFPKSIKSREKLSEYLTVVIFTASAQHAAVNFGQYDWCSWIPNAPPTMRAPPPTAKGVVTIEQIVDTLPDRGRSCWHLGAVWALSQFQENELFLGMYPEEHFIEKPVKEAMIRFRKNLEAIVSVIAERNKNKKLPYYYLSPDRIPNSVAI
Experimental: For in vitro experiments, compounds were dissolved at appropriate concentrations in ethanol (final concentration 1.0%) and then diluted to final concentrations using the buffers indicated in the text.
The activities of these enzymes in extracts of RBL-1 cells were assayed using the method of Jakschik and Lee, Nature, 287, 51-52 (1980). RBL-1 cells were obtained from the American Type Culture Collection (#CRL 1378) and were grown at 37°C (5% CO₂ in air) in spinner culture in MEM supplemented with 10% heat inactivated fetal calf serum. Harvested cells were washed with 50 mM sodium phosphate buffer, pH 7.0, containing 1 mM EDTA and 0.1% gelatin, resuspended in fresh buffer (5 x 10⁷ cells/ml) and disrupted by nitrogen cavitation using the Parr bomb at 750 psi for 10 min. The broken cell extract was then centrifuged at 10,000 x g for 20 minutes (min) and the supernatant was centrifuged at 100,000 x g for 60 min. Aliquots (0.25 mls) of the supernatant were preincubated with or without drugs for 10 min, after which 10 ul CaCl₂ (2 mM) was added and the reaction was initiated with 2.5 »l of 2.5 mM arachidonic acid-1-¹⁴C (final concentration was 25 »M; specific activity 20,000 dpm/nmole). After incubation for 5 minutes at 37°C, the reaction was terminated by addition of 2 volumes (0.5 ml) ice cold acetone and the sample was allowed to deproteinize on ice for 10 minutes prior to centrifugation at 1,000 x g for 10 minutes. The deproteinized supernatant was adjusted to pH 3.5 with 2N formic acid and extracted with 2 volumes of ice cold ethyl acetate. The extracted samples were dried under argon, redissolved in ethyl acetate and applied to Whatman LK5D thin layer chromatography (TLC) plates which were developed using the A-9 solvent system [organic phase of ethyl acetate: […]:acetic acid: water (110:50:20:10)] described by Hamberg and Samuelsson, J. Biol. Chem., 241, 257-263 (1966). Arachidonic acid, 5-HETE, LTB₄ and PGD₂ were quantified with a Berthold LB 2832 autoscanner.
Under these conditions, only the 5-lipoxygenase pathway metabolites were detectable. The 5-HETE and di-HETEs were formed at a linear rate, and […] amounts of the arachidonic acid-1-¹⁴C substrate were utilized.

[1] = Cytochrome P-450 inhibition (ethoxycoumarin-O-deethylase activity, phenobarbital-induced microsomes); details: rat, liver microsomes
[2] = Log D determination by high pressure liquid chromatography; format: physicochemical; details: hplc ods, mobile phase MeOH:H2O, pH 7.4, read-out: (Log D) (Lipophilicity)
Experimental: The procedure used to determine the log D's listed on Table VI was as follows. A 20 »l sample was injected into a Shandon Hypersil ODS, 5» (100 mm x 4.6 mm ID) column and was eluted using a mobile phase of […] MeOH:H₂O (The aqueous portion was .01 M in KH₂PO₄ and adjusted to pH 7.4 with KOH after mixing the MeOH), at a flow rate of 2 ml per minute. Eluting peaks were detected by UV absorbance at […]. All samples were made up at 0.1 mg/ml. (Retentions were identical at 0.01 mg/ml.)
The data was analyzed by determining the regression line corresponding to the log k′ vs. literature log P of the reference standards.
The reference standards and their literature log P's included NaNO₂, 0.0; acetanalide, 1.16; acetophenone, 1.66; anisole, 2.08; chlorobenzene, 2.84; benzophenone, 3.18; anthracene, 4.45; and pentachlorobenzene, 5.12.

[3] = test system: arachidonic acid-induced edema in mice; test: Arachidonic acid-induced mouse ear inflammation (ear swelling); format: in vivo, male Balb/c mice; details: po; for ED50: mouse, read-out: AAEE(MOUSE ED50 mg/kg (po))
Experimental: In the tests used to determine activity as 5-lipoxygenase pathway inhibitors, male Balb/c mice (20-28 g), were used. All mice were obtained from Charles River Breeding Laboratories, Kingston, N.Y. Within a single experiment, mice were age matched.
Reagents were employed as follows: Compounds of Formula (I) were each used as the free base. The compounds were homogenized in 0.5% tragacanth. Compounds were administered by […] at the indicated dose in a final volume of 10 ml/kg.
Arachidonic acid in acetone (2 mg/20 »l) was applied to the inner surface of the left ear. The thickness of both ears was then measured with a dial micrometer one hour after treatment, and the data were expressed as the change in thickness (10⁻³ cm) between treated and untreated ears.
Test compounds were given orally in acid/saline at the times indicated in the text prior to the topical application of arachidonic acid.
Dermatol., 82, 367-371 (1984)].

[4] = LTB4 production by RBL-1 high speed supernatant

SMILES | IC50 (5-Lipoxygenase; [4]) [µM] | IC50 [1] [µM] | chromatographic logD [2] | ED50 [3] [mg/kg] | IC50 (5-Lipoxygenase; total HETE and Di-HETE production by RBL-1 high speed supernatant) [µM] | inhibition at 50 mg/kg ([3]; Mus musculus, 1 h, 50 mg/kg p.o., ear thickness one hour after 2 mg arachidonic acid) [%]
CSc1ccc(-c2nc3n(c2-c2ccncc2)CCC3)cc1 [Compound 1, 2-(4-Methylthiophenyl)-3-(4-pyridyl)-6,7-dihydro-[5H]-pyrrolo[1,2-a]imidazole] | 20 | 43.7 | 2.68 | 20 |  | 
C[S+]([O-])c1ccc(-c2nc3n(c2-c2ccncc2)CCC3)cc1 (stereo not shown) [Compound 2, 2-(4-Methylsulfinylphenyl)-3-(4-pyridyl)-6,7-dihydro-[5H]-pyrrolo[1,2-a]imidazole] | > 100 | 866 | 0.85 | 44 | > 100 | 44
